Columns and labels:
B16BL6 melanoma cells = experiment: wound healing assay (cell motility); assay type: cell-based; conditions: non cytotoxic concentration
Method: (§1) Wound healing assay was performed to evaluate the effect of BA016DD537 on motility of malignant NIH 3T3 EF cells and melanoma cell lines B16F10 and B16BL6. All the cells were incubated at 37° C. in a humidified 5% CO2 atmosphere. About 100 000-200 000 cells were seeded in a 6-well culture plate and BA016DD537, at the different concentrations, was added 24 hours later. Cells were grown for 3 days to confluence about 90-95% and small scratch-wounds (about 200 μm-1 mm width) were made with a pipette tip. Cell debris were removed, then the cultures were incubated in complete medium for 10 h in the presence of the same concentration of BA016DD537. Then, the cells were fixed for 10 min in PBS containing 3.7% formaldehyde at 4° C.

NIH 3T3 EF cells = experiment: wound healing assay (cell motility); assay type: cell-based; conditions: 50 nM
Method: as §1

[1] = tested on: B16BL6 melanoma cell line; experiment: MTT cell viability, combination with retinoids; assay type: cell-based
Method: The ex vivo cell viability inhibition by BA016DD537 in the presence of the retinoids 13CRA and ATRA was tested against B16BL6 melanoma cell line using the 3-(4,5 dimethylthiazol-2-yl)-2,5-diphenyl-2H-tetrazolium bromide (MTT) calorimetric assay.
(§2) About 1000 cells were seeded in a 96-well culture plate 24 hours before adding increasing concentrations of BA016DD537, from 1 pM to 100 pM, in the absence or in the presence of 10 nM of retinoids. The plate was incubated at 37° C. for 3 days. 10 μl MTT stock solution (5 mg/ml in phosphate buffer saline) was added to 90 μl of complete medium in each well, the incubation was continued for 3 h at 37° C. 100 μl of lysis buffer (20% sodium dodecyl sulfate, 10 mM HCl, 1×PBS) was added to each well, and the plate was incubated overnight. The absorbance was determined using an Integrated EIA Management System (Labsystem) at a wavelength of 570 nm.

NCI-H187 [2] = experiment: MTT cell proliferation assay; assay type: cell-based, human; conditions: NCI-H187, viability 72 h
Method: (§3) Growth studies were performed using the [3-(4,5 dimethylthiazol-2-yl)-2,5-diphenyl-2H-tetrazolium bromide] (Sigma) calorimetric assay.
as §2, with “1500 to 5000 cells, according to the cell line,” for “1000 cells”, “BA016DD537” for “BA016DD537, from 1 pM to 100 pM, in the absence”, “BA016FZ539.” for “in the presence of 10 nM of retinoids.”, “(10%” for “(20%”, “1% HCl 1N; pH 4.7)” for “10 mM HCl, 1×PBS)”, “nm. The proliferation rates were calculated from the OD readings using the untreated cells as 100%.” for “nm.”
(§4) The SRB protein stain assay was compared with the tetrazolium (MTT) colorimetric assay for in vitro chemosensitivity testing of various human small cell lung cancer cell lines.

NCI-H446 = experiment: MTT cell proliferation assay; assay type: cell-based, human; conditions: NCI-H446, viability 72 h, mean +/− SEM
Method: as §3
as §2, with “1500 to 5000 cells, according to the cell line,” for “1000 cells”, “BA016DD537” for “BA016DD537, from 1 pM to 100 pM, in the absence”, “BA016FZ539.” for “in the presence of 10 nM of retinoids.”, “(10%” for “(20%”, “1% HCl 1N; pH 4.7)” for “10 mM HCl, 1×PBS)”, “nm. The proliferation rates were calculated from the OD readings using the untreated cells as 100%.” for “nm.”
as §4

NCI-H510 [3] = experiment: MTT cell proliferation assay; assay type: cell-based, human; conditions: NCI-H510, viability 72 h
Method: as §3
as §2, with “1500 to 5000 cells, according to the cell line,” for “1000 cells”, “BA016DD537” for “BA016DD537, from 1 pM to 100 pM, in the absence”, “BA016FZ539.” for “in the presence of 10 nM of retinoids.”, “(10%” for “(20%”, “1% HCl 1N; pH 4.7)” for “10 mM HCl, 1×PBS)”, “nm. The proliferation rates were calculated from the OD readings using the untreated cells as 100%.” for “nm.”
as §4

1205 Lu = experiment: cloning assay in methylcellulose (colony formation); assay type: cell-based, human; conditions: read-out: Inhibition of colony formation (methylcellulose) IC50
Method: (§5) Cells were embedded in complete culture medium supplemented with 0.8% methylcellulose (Methocel MC4000, Sigma), seeded in triplicate into 35-mm dishes (Greiner Bio-one Ref 627102, Dominique Dutscher) and incubated at 37° C. in a humidified 5% CO2 atmosphere. The number of cells seeded was 1000 cells per dish. After one to three weeks, according to cell lines, macroscopic clones were counted.

451 Lu = experiment: as above; assay type: cell-based, human; conditions: read-out: Inhibition of colony formation (methylcellulose) IC50
Method: as §5

A375 = experiment: as above; assay type: cell-based, human; conditions: read-out: Inhibition of colony formation (methylcellulose) IC50
Method: as §5

C9 = experiment: as above; assay type: cell-based, human; conditions: read-out: Inhibition of colony formation (methylcellulose) IC50
Method: as §5

HT144 = experiment: as above; assay type: cell-based, human; conditions: read-out: Inhibition of colony formation (methylcellulose) IC50
Method: as §5

Mia Paca-2 = experiment: as above; assay type: cell-based, human; conditions: read-out: Inhibition of colony formation (methylcellulose) IC50
Method: as §5

PANC-1 = experiment: as above; assay type: cell-based, human; conditions: read-out: Inhibition of colony formation (methylcellulose) IC50
Method: as §5

SKMEL28 = experiment: as above; assay type: cell-based, human; conditions: read-out: Inhibition of colony formation (methylcellulose) IC50
Method: as §5

NCI-H187 [4] = experiment: SRB (sulforhodamine B) cell proliferation assay; assay type: cell-based, human; conditions: NCI-H187, viability 72 h, mean +/− SEM
Method: (§6) Growth studies were performed using the Sulforhodamine B (SRB) calorimetric assay (Sigma).
(§7) SRB assay is used for cell density determination based on the measurement of cellular protein content. This method has been optimized for toxicity screening of compounds in adherent cells in a 96-well format (Skehan et al., Proc. Amer. Assoc. Cancer Res. 1989, 30:2436).
(§8) About 50 000 NCI-H510, NCI-H446 or NCI-H187 cells were seeded in a 96-well culture plate while adding increasing concentrations of BA016FZ539.
(§9) After an incubation period, cell monolayers are fixed with 10% (wt/vol) trichloroacetic acid and stained for 30 min, after which the excess dye is removed by washing repeatedly with 1% (vol/vol) acetic acid. The protein-bound dye is dissolved in 10 mM Tris base solution for optic density determination (OD) at 510 nm using a microplate reader.
(§10) The proliferation rates were calculated from the OD readings using the untreated cells as 100%.

NCI-H510 [5] = experiment: SRB (sulforhodamine B) cell proliferation assay; assay type: cell-based, human; conditions: NCI-H510, viability 72 h, mean +/− SEM
Method: as §6, §7, §8, §9, §10

MIA PaCa-2 cells = experiment: morphological changes under microscopic observation (phenotype reversal); assay type: cell-based, human; conditions: 4 μM for 3 days
Description: (§11) Changes in configuration and number of pancreatic cell lines were observed under microscopic observation (FIG. 5).

PANC-1 cell line = experiment: as above; assay type: cell-based, human
Description: as §11

In the case of Cc1c2cc[n+](CCN3CCCCC3)cc2c(C)c2c1[nH]c1ccc(O)cc12.[Cl-] [BA016DD537, 2-(β-piperidinoethyl)-9-hydroxyellipticinium chloride], the “inhibition of cell motility” value (B16BL6 melanoma cells) is reported as “inhibition of the B16BL6 cells motility”, the “inhibition of cell migration” value (NIH 3T3 EF cells) is reported as “complete inhibition” and the “decrease of dose when used in combination with retinoids for the same results” value ([1]; 100 nM alone vs 1 pM in the presence of ATRA 10 nM) is reported as 100 000 fold. The “tumoral cell viability inhibition (MTT)” value ([1]; lower doses in the presence of 10 nM retinoids (13CRA, ATRA)) was “increased tumoral cell viability inhibition”.
CS(=O)(=O)[O-].Cc1c2cc[n+](CCN3CCCCC3)cc2c(C)c2c1[nH]c1ccc(O)cc12 [BA016FZ539, 2-(betapiperidino-2-ethyl)-9-hydroxyellipticinium methanesulfonate] showed an IC50 (NCI-H187 [2]) of 7.9 µM, an IC50 (NCI-H446) of 9.8 µM and an IC50 (NCI-H510 [3]) of 14.8 µM. It also gave an IC50 (1205 Lu) of 247 nM, an IC50 (451 Lu) of 2000 nM and an IC50 (A375) of 97 nM. The IC50 (C9) was 132 nM, the IC50 (HT144) was 125 nM and the IC50 (Mia Paca-2) was 640 nM. For the same compound, the IC50 (PANC-1) was 4300 nM, the IC50 (SKMEL28) was 515 nM and the IC50 (NCI-H187 [4]) was 16.9 µM. The IC50 (NCI-H510 [5]) was 5.8 µM, the “reversal of the transformed phenotype (cell morphology)” value (MIA PaCa-2 cells) was “reversal from the transformed phenotype (FIG. 5, A) to a normal phenotype” and the “reversal of the transformed phenotype (cell morphology)” value (PANC-1 cell line) was “not in PANC-1 cell line”.
